Structures can show the parent of a compound that is named as a salt. Where two headings read alike, the source gives them in different places.
Target: human PHD2 (Homo sapiens (Human), UniProt Q9GZT9)
Experiment: Test 2: human PHD2 inhibitory activity, fluorescence polarization assay of HIF-1α peptide proline hydroxylation
Type: biochemical
Details: read-out: Percent inhibition (% at 1 μM)
How it was run: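 A 19-mer HIF-1α peptide served as substrate, with the reaction started by 40 ng/well human PHD2 (cell lysate of NM_022051-transfected cells) and run 20 min at 30° C. before EDTA stop. Hydroxylated product bound anti-HIF-OH antibody, read by fluorescence polarization versus no-compound control.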

[1] = test compound's concentration 1 μM, Test 2, fluorescence polarization assay

human PHD2, sequence (Q9GZT9 whole entry): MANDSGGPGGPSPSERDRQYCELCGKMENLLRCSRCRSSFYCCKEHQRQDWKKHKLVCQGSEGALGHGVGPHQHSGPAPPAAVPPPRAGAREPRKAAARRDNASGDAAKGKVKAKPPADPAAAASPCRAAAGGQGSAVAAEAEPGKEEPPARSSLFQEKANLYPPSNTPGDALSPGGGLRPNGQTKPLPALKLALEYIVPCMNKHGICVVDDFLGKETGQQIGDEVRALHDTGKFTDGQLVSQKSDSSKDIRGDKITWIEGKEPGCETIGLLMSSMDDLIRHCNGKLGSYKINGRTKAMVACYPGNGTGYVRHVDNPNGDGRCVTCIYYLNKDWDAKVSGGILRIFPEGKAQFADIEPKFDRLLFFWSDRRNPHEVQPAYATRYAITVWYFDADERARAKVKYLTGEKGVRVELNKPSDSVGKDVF

Row | Compound | inhibition at 1 µM [1] [%] | inhibition at 1 µM [%]
1 | O=C(O)CNC(=O)C1=C(O)CN(Cc2ccc(OCC3CC3)cc2)C1=O [Ex. 6-7] | 86 | 
2 | CC1C(O)=C(C(=O)NCC(=O)O)C(=O)N1Cc1ccc(OCC2CC2)cc1 (stereo not shown) [Ex. 6-8] | 83 | 
3 | CC1(C)C(O)=C(C(=O)NCC(=O)O)C(=O)N1Cc1ccc(OCC2CC2)cc1 [Ex. 6-9] | 85 | 
4 | O=C(O)CNC(=O)C1=C(O)C[C@H](c2ccccc2)N(Cc2ccc(OCC3CC3)cc2)C1=O [Ex. 6-10] | 76 | 
5 | O=C(O)CNC(=O)C1=C(O)C[C@@H](c2ccccc2)N(Cc2ccc(OCC3CC3)cc2)C1=O [Ex. 6-11] | 73 | 
6 | CC1CC(O)=C(C(=O)NCC(=O)O)C(=O)N1Cc1ccc(OCC2CC2)cc1 (stereo not shown) [Ex. 6-12] | 67 | 
7 | O=C(O)CNC(=O)C1=C(O)CC2(CCOCC2)N(Cc2ccc(OCC3CC3)cc2)C1=O [Ex. 6-13] | 81 | 
8 | O=C(O)CNC(=O)C1=C(O)CC2(COC2)N(Cc2ccc(OCC3CC3)cc2)C1=O [Ex. 6-14] | 80 | 
9 | NC(=O)[C@H]1CC(O)=C(C(=O)NCC(=O)O)C(=O)N1Cc1ccc(OCC2CC2)cc1 [Ex. 6-15] | 55 | 
10 | NC(=O)[C@@H]1CC(O)=C(C(=O)NCC(=O)O)C(=O)N1Cc1ccc(OCC2CC2)cc1 [Ex. 6-16] | 26 | 
11 | CC1(C)CC(O)=C(C(=O)NCC(=O)O)C(=O)N1CC1CCN(c2ncccn2)CC1 [Ex. 6-17] | 32 | 
12 | CC1(C)CC(O)=C(C(=O)NCC(=O)O)C(=O)N1CC1CCN(C(=O)CC2CC2)CC1 [Ex. 6-18] | 24 | 
13 | O=C(O)CNC(=O)C1=C(O)C[C@H](c2cccnc2)N(Cc2ccc(OCC3CC3)cc2)C1=O [Ex. 6-19] | 72 | 
14 | O=C(O)CNC(=O)C1=C(O)C[C@@H](c2cccnc2)N(Cc2ccc(OCC3CC3)cc2)C1=O [Ex. 6-20] | 84 | 
15 | O=C(O)CNC(=O)C1=C(O)C[C@@H](Cc2ccccc2)N(Cc2ccc(OCC3CC3)cc2)C1=O [Ex. 6-21] | 85 | 
16 | O=C(O)CNC(=O)C1=C(O)C[C@H](Cc2ccccc2)N(Cc2ccc(OCC3CC3)cc2)C1=O [Ex. 6-22] | 88 | 
17 | O=C(O)CNC(=O)C1=C(O)C2(CCCCC2)CN(Cc2ccc(OCC3CC3)cc2)C1=O [Ex. 6-23] | 85 | 
18 | O=C(O)CNC(=O)C1=C(O)CC2(CCCCC2)N(Cc2ccc(OCC3CC3)cc2)C1=O [Ex. 6-24] | 78 | 
19 | CC1(C)CC(O)=C(C(=O)NCC(=O)O)C(=O)N1Cc1ccc(OCC(N)=O)cc1 [Ex. 6-25] | 49 | 
20 | CC1(C)CC(O)=C(C(=O)NCC(=O)O)C(=O)N1CC1CCN(Cc2ccccc2)CC1 [Ex. 6-26] | 16 | 
21 | CC(C)[C@H]1CC(O)=C(C(=O)NCC(=O)O)C(=O)N1Cc1ccc(OCC2CC2)cc1 [Ex. 6-27] | 51 | 
22 | CC(C)[C@@H]1CC(O)=C(C(=O)NCC(=O)O)C(=O)N1Cc1ccc(OCC2CC2)cc1 [Ex. 6-28] | 42 | 

Row | Compound | inhibition at 1 µM [1] [%] | inhibition at 1 µM [%]
23 | CC1(C)CC(O)=C(C(=O)NCC(=O)O)C(=O)N1Cc1ccc(OCC2CC2)nc1 [Ex. 6-29] | 69 | 
24 | O=C(O)CNC(=O)C1=C(O)C[C@H](CO)N(Cc2ccc(OCC3CC3)cc2)C1=O [Ex. 6-30] | 45 | 
25 | O=C(O)CNC(=O)C1=C(O)C[C@@H](CO)N(Cc2ccc(OCC3CC3)cc2)C1=O [Ex. 6-31] | 44 | 
26 | CC1(C)CC(O)=C(C(=O)NCC(=O)O)C(=O)N1CC1CN(c2ncccn2)C1 [Ex. 6-32] | 4 | 
27 | CC1(C)CC(O)=C(C(=O)NCC(=O)O)C(=O)N1Cc1ccc(OCC2CC2)nn1 [Ex. 6-33] | 68 | 
28 | COC[C@@H]1CC(O)=C(C(=O)NCC(=O)O)C(=O)N1Cc1ccc(OCC2CC2)cc1 [Ex. 6-34] | 70 | 
29 | CC1(C)CC(O)=C(C(=O)NCC(=O)O)C(=O)N1Cc1cnc(OCC2CC2)cn1 [Ex. 6-35] | 60 | 
30 | CN(C)C[C@@H]1CC(O)=C(C(=O)NCC(=O)O)C(=O)N1Cc1ccc(OCC2CC2)cc1 [Ex. 6-36] | 30 | 
31 | O=C(O)CNC(=O)C1=C(O)CC2(CCN(C(=O)c3ccccc3)CC2)N(Cc2ccc(-c3ccccc3)cc2)C1=O [Ex. 7-1, N-{[9-Benzoyl-1-(4-biphenylylmethyl)-4-hydroxy-2-oxo-1,9-diazaspiro[5.5]undec-3-en-3-yl]carbonyl}glycine] | 97 | 
32 | O=C(O)CNC(=O)C1=C(O)CC2(CCN(Cc3ccccc3)CC2)N(Cc2ccc(-c3ccccc3)cc2)C1=O [Ex. 7-2, N-{[9-Benzyl-1-(4-biphenylylmethyl)-4-hydroxy-2-oxo-1,9-diazaspiro[5.5]undec-3-en-3-yl]carbonyl}glycine trifluoroacetate] | 88 | 
33 | O=C(O)CNC(=O)C1=C(O)CC2(CCN(C(=O)c3ccccc3)CC2)N(Cc2ccccc2)C1=O [Ex. 7-3, N-[(9-Benzoyl-1-benzyl-4-hydroxy-2-oxo-1,9-diazaspiro[5.5]undec-3-en-3-yl)carbonyl]glycine] | 65 | 
34 | COc1ccc(CN2CCC(O)=C(C(=O)NCC(=O)NO)C2=O)cc1 [Ex. 8-1, 4-Hydroxy-N-[2-(hydroxyamino)-2-oxoethyl]-1-(4-methoxybenzyl)-2-oxo-1,2,5,6-tetrahydro-3-pyridinecarboxamide] | 16 | 
35 | COc1ccc(CN2CCC(O)=C(C(=O)NCCC(=O)O)C2=O)cc1 [Ex. 9-1, N-{[4-Hydroxy-1-(4-methoxybenzyl)-2-oxo-1,2,5,6-tetrahydro-3-pyridinyl]carbonyl}-β-alanine] | 29 | 
36 | COc1ccc(CN2CCC(O)=C(C(=O)NCCCC(=O)O)C2=O)cc1 [Ex. 9-2] | 23 | 
37 | COc1ccc(CN2CCC(O)=C(C(=O)N[C@H](C)C(=O)O)C2=O)cc1 [Ex. 9-3] | 1 | 
38 | COc1ccc(CN2CCC(O)=C(C(=O)N[C@@H](C)C(=O)O)C2=O)cc1 [Ex. 9-4] | 42 | 
39 | COc1ccc(CN2CCC(O)=C(C(=O)N(C)CC(=O)O)C2=O)cc1 [Ex. 9-5, N-{[4-Hydroxy-1-(4-methoxybenzyl)-2-oxo-1,2,5,6-tetrahydro-3-pyridinyl]carbonyl}-N-methylglycine] | 3 | 
40 | CC1(C)CC(O)=C(C(=O)NCC(=O)O)C(=O)N1CC(=O)NCc1ccc(-c2ccccc2)cc1 [Ex. 10-1, N-[(1-{2-[(4-Biphenylylmethyl)amino]-2-oxoethyl}-4-hydroxy-6,6-dimethyl-2-oxo-1,2,5,6-tetrahydro-3-pyridinyl)carbonyl]glycine sodium salt] |  | 34
41 | CC1(C)CC(O)=C(C(=O)NCC(=O)O)C(=O)N1CC(=O)NCc1ccc(C(F)(F)F)cc1 [Ex. 10-2] | 6 | 
42 | CN(Cc1ccc(F)cc1)C(=O)CN1C(=O)C(C(=O)NCC(=O)O)=C(O)CC1(C)C [Ex. 10-4] | 10 | 
43 | O=C(O)CNC(=O)C1=C(O)CCN(C(CO)c2ccc(-c3ccc(F)cc3)cc2)C1=O (stereo not shown) [Ex. 11-1, N-({1-[1-(4′-Fuoro-4-biphenylyl)-2-hydroxyethyl]-4-hydroxy-2-oxo-1,2,5,6-tetrahydro-3-pyridinyl}carbonyl)glycine] | 96 | 

Reference: patent publication US9422240B2, “Partially saturated nitrogen-containing heterocyclic compound” (TAISHO PHARMACEUTICAL CO., LTD, priority 2012, dated 2016)
